Results published in patent publication US10239957B2, “Peptide containing conjugates for dual molecular delivery of oligonucleotides” (Merck Sharp & Dohme Corp., priority 2013, dated 2019).
Where no end group is shown, it is not given here. [ ]: non-standard residue; d: D form. TGN = not defined here

System: CTNNB1
Test: In vivo evaluation in mice: liver mRNA knockdown measurement
Method: Female CD-1 mice (Charles River) were injected in accordance with either a sequential dosing paradigm or a co-dosing paradigm. In the sequential dosing paradigm, the targeted siRNA (SCE) is dosed at t=0 and the targeted peptide is separately dosed up to 2 hr before the SCE (−2 hr) or up to 24 hr after the SCE (+24 hr). In the co-dosing paradigm, the SCE and peptides are co-formulated and dosed together in the same formulation as a single injection at t=0. The mice were dosed either by intravenous (i.v.) or subcutaneous (s.c.) injection of SCE and peptide. For the i.v. doses, the compounds were injected into the tail vein of the mice. For the s.c. doses, the compounds were injected in the subcutaneous space on the back of the mouse between the shoulder blades. At the indicated harvest times (measured from t=0 when the siRNA was dosed, regardless of when the peptide was dosed), the animals were sacrificed and 3 mm liver punches were collected, preserved in RNAlater (Ambion), and stored at 4° C. Separate 5 mm liver punches were collected, placed in 96-well plates, frozen on dry ice, and stored at −80° C. until use.
The 3 mm liver punches were removed from RNAlater and homogenized in Trizol (Invitrogen) using a bead mill tissue lyser (Qiagen); disruption was performed for two 5-minute cycles at 30 Hz. RNA extraction was performed using 1-bromo-2-chloropropane (Acros Organics) and total RNA was isolated from the aqueous phase using the MagMax RNA isolation method (Ambion). […] TaqMan qPCR analysis was performed with an ABI 7900 Real-Time PCR System using TaqMan Fast Advanced Master Mix (Applied Biosystems). All TaqMan probes and primers for CTNNB1 and PPIB (housekeeping gene) were purchased from Applied Biosystems as pre-validated gene expression assays. Results are calculated by the comparative Ct method, where the difference between the CTNNB1 Ct value and the PPIB Ct value (ΔCt) is calculated and then further normalized relative to the PBS control by taking a second difference (ΔΔCt), as described previously (1).

[1] = Table 8 (linkage comparison), TGN-L-siRNA-II 0.25 mg/kg, peptide 1 mg/kg
[2] = Table 8 (linkage comparison), TGN-L-siRNA-II 0.25 mg/kg, peptide 3 mg/kg
[3] = mice, TGN-L-siRNA-II 0.25 mg/kg IV, peptide 1 mg/kg IV 15 min after siRNA
[4] = mice, TGN-L-siRNA-II 0.25 mg/kg IV, peptide 3 mg/kg IV 15 min after siRNA
[5] = mice, TGN-L-siRNA-III 0.25 mg/kg IV, peptide 2 mg/kg IV 15 min after siRNA
[6] = mice, TGN-L-siRNA-III 0.25 mg/kg IV, peptide 10 mg/kg IV 15 min after siRNA
[7] = mice, TGN-L-siRNA-III 0.5 mg/kg IV, peptide 5 mg/kg IV 15 min after siRNA
[8] = mice, TGN-L-siRNA-III 0.5 mg/kg IV, peptide 2 mg/kg IV 15 min after siRNA
[9] = mice, TGN-L-siRNA-III 0.5 mg/kg IV, peptide 10 mg/kg IV 15 min after siRNA
[10] = mice, TGN-L-siRNA-III 0.25 mg/kg IV, peptide 5 mg/kg IV 15 min after siRNA

Substance: TGN-CDM-SEQ ID NO: 1801 (D): TGN-CDM peptide; peptide glfgeieelieeglenlidwgng; C8 made from the same all(D) sequence (G[dL][dF]G[dE][dI][dE][dE][dL][dI][dE][dE]G[dL][dE][dN][dL][dI][dD][dW]G[dN]G; also: TGN-CDM conjugate; listed as Homo sapiens)
- In vivo mRNA knockdown [1]: 23.0%
- In vivo mRNA knockdown [2]: 24.9%

Substance: TGN-ECL-SEQ ID NO: 1802 (D): TGN-ECL-peptide; peptide gffgaiwefihsil (G[dF][dF]G[dA][dI][dW][dE][dF][dI][dH][dS][dI][dL]; also: TGN-ECL conjugate; listed as Homo sapiens)
- In vivo mRNA knockdown [1]: 28.7%
- In vivo mRNA knockdown [2]: 64.0%

Substance: TGN-S-S- SEQ ID NO: 1738 (D) (G[dL][dF]G[dE][dI][dE][dE][dL][dI][dE][dE]G[dL][dE][dN][dL][dI][dD][dW]G[dN]G[dL][dA][dE][dL][dA][dE][dA][dL][dE][dA][dL][dA][dA]GG[dS][dC]; not fully specified (residue 40); also: TGN attached via disulfide; listed as Homo sapiens)
- In vivo mRNA knockdown [3]: 25%
- In vivo mRNA knockdown [4]: 44%

Substance: TGN-S-S-SEQ ID NO: 935 (L) (C(TGN)GFFGEIAELIWEGLKNLIDWWNG; reading uncertain; also: TGN linked to Cys via disulfide, TGN not defined; listed as Homo sapiens)
- In vivo mRNA knockdown [5]: 17%
- In vivo mRNA knockdown [6]: 23%

Substance: TGN-S-S-SEQ ID NO: 1248 (L) (C(TGN)FLEELWELLEHLL; reading uncertain; also: TGN disulfide conjugate at Cys1; listed as Homo sapiens)
- In vivo mRNA knockdown [7]: 24%

Substance: TGN-S-S-SEQ ID NO: 1403 (L) (C(TGN)GLLEEIEELLEEGLENLIDWWNS; reading uncertain; also: TGN disulfide conjugate at Cys1; listed as Homo sapiens)
- In vivo mRNA knockdown [5]: 22%
- In vivo mRNA knockdown [6]: 24%

Substance: TGN-S-S-SEQ ID NO: 1489 (D) ([dC][dL][dE][dL][dW][dL][dE][dH][dL][dF][dL][dE][dL][dE]; not fully specified (residue 1); also: TGN attached via disulfide; listed as Homo sapiens)
- In vivo mRNA knockdown [8]: 37%
- In vivo mRNA knockdown [9]: 26%
- In vivo mRNA knockdown (mice, TGN-L-siRNA-III 0.5 mg/kg IV, peptide 25 mg/kg IV 15 min after siRNA): 34%

Substance: TGN-S-S-SEQ ID NO: 1516 (L) (C(TGN)GLFAEIEELLEEGLENLIDWWNG; reading uncertain; also: TGN disulfide conjugate at Cys1; listed as Homo sapiens)
- In vivo mRNA knockdown [10]: 14%

Substance: TGN-S-S-SEQ ID NO: 1643 (D) ([dC]G[dF][dF]G[dE][dI][dA][dE][dL][dI][dE][dE]G[dL][dK][dN][dL][dI][dD][dW]G[dN]G; not fully specified (residue 1); also: TGN attached via disulfide; listed as Homo sapiens)
- In vivo mRNA knockdown [6]: 41%

Substance: TGN-S-S-SEQ ID NO: 1716 (L) (C(TGN)GLFEELAGLLWHGLKNLIDWWNG; reading uncertain; also: TGN disulfide conjugate at Cys1; listed as Homo sapiens)
- In vivo mRNA knockdown [7]: 39%

Substance: TGN-S-S-SEQ ID NO: 1717(L): TGN-S-S-peptide; peptide CFLGALFHALSHLLENLIDWWNG (C(TGN)FLGALFHALSHLLENLIDWWNG; reading uncertain; also: TGN disulfide conjugate at Cys1; listed as Homo sapiens)
- In vivo mRNA knockdown [7]: 16%

Substance: TGN-S-S-SEQ ID NO: 1719 (L) (C(TGN)GLFAEIEELIWEGLENLIDWWNQ; reading uncertain; also: TGN disulfide conjugate at Cys1; listed as Homo sapiens)
- In vivo mRNA knockdown [10]: 25%

Substance: TGN-S-S-SEQ ID NO: 1725 (L) (C(TGN)SSAWWSYWPPVA; reading uncertain; also: TGN disulfide conjugate at Cys1; listed as Homo sapiens)
- In vivo mRNA knockdown [6]: 19%

Substance: TGN-S-S-SEQ ID NO: 1726(D): TGN-S-S-peptide; peptide CGLFAVIKKVASVIGGL ([dC]G[dL][dF][dA][dV][dI][dK][dK][dV][dA][dS][dV][dI]GG[dL]; not fully specified (residue 1); also: TGN attached via disulfide; listed as Homo sapiens)
- In vivo mRNA knockdown [6]: 23%

Substance: TGN-S-S-SEQ ID NO: 1727 (D): TGN-S-S-peptide; peptide CGLFAVIHHVASVIGGL ([dC]G[dL][dF][dA][dV][dI][dH][dH][dV][dA][dS][dV][dI]GG[dL]; not fully specified (residue 1); also: TGN attached via disulfide; listed as Homo sapiens)
- In vivo mRNA knockdown [6]: 26%

Substance: TGN-S-S-SEQ ID NO: 1728(D): TGN-S-S-peptide; peptide CGLFAVIEEVASVIGGL ([dC]G[dL][dF][dA][dV][dI][dE][dE][dV][dA][dS][dV][dI]GG[dL]; not fully specified (residue 1); also: disulfide to TGN peptide via Cys1; listed as Homo sapiens)
- In vivo mRNA knockdown [6]: 23%

Substance: TGN-S-S-SEQ ID NO: 1729 (L) (C(TGN)GPSQPTYPGDDAPVRDLIRFYRDLRRYLNVVTRHRY; reading uncertain; also: TGN linked to Cys via disulfide, TGN not defined; listed as Homo sapiens)
- In vivo mRNA knockdown [6]: 10%

Substance: TGN-S-S-SEQ ID NO: 1740 (D): TGN-S-S-peptide; peptide GLFEAIEGFIENGWEGLAELAEALEALAAGGSC (G[dL][dF][dE][dA][dI][dE]G[dF][dI][dE][dN]G[dW][dE]G[dL][dA][dE][dL][dA][dE][dA][dL][dE][dA][dL][dA][dA]GG[dS][dC]; not fully specified (residue 33); also: disulfide to TGN peptide via Cys33; listed as Homo sapiens)
- In vivo mRNA knockdown [3]: 23%
- In vivo mRNA knockdown [4]: 42%

Substance: TGN-S-S-SEQ ID NO: 1741(L): TGN-S-S-peptide; peptide GLFGALAEALAEALAEHLAEALAEALEALAAGGSC (GLFGALAEALAEALAEHLAEALAEALEALAAGGSC(TGN); reading uncertain; also: TGN linked to Cys via disulfide, TGN not defined; listed as Homo sapiens)
- In vivo mRNA knockdown [4]: 24%

Substance: TGN-S-S-SEQ ID NO: 1744 (D) ([dC][dE][dE][dN][dW][dI]G[dL][dF]GGG[dN][dI][dW][dE][dE][dE][dE][dI][dL][dD][dL][dL]; not fully specified (residue 1); also: disulfide to TGN peptide via Cys1; listed as Homo sapiens)
- In vivo mRNA knockdown [8]: 28%
- In vivo mRNA knockdown [9]: 33%
